For one data set, the target named is T1, VEGFR-2 (Homo sapiens, UniProt P35968).
T1 construct: purchased BPS Bioscience 40325
The data set can be described thus: In-vitro VEGFR-2 kinase assay (BPS Bioscience kit, Kinase-Glo MAX). It counts as biochemical. Particulars: mean ± S.D of three experiments. As to the method: The VEGFR-2 Kinase Assay Kit [Catalog no., 40325, BPS Bioscience®, USA] is designed to measure VEGFR-2 kinase activity for screening and profiling applications using Kinase-Glo® MAX as a detection reagent. The VEGFR-2 Kinase Assay Kit comes in a convenient 96-well format, with enough purified recombinant VEGFR2 enzyme and VEGFR2 substrate. The assay protocol was carried out according to manufacturer instructions.

Data set [1] has as its system heart creatine kinase (CK). The data set can be described thus: Heart creatine kinase (CK) ELISA in 8 Gy irradiated mice. In kind it is in vivo. Particulars: 50 mg/kg p.o., 3 days. As for the experimental part:
(§1) Whole body γ-irradiation of mice was performed at the NCRRT using the Gamma Cell-40 biological irradiator with a Cesium-137 irradiator unit, produced by the atomic energy of Canada limited (Sheridan science and technology park, Mississauga, Ontario, Canada). Mice were exposed to an acute dose of 8 Gy according to Yoo et al..
(§2) A total 32 mice were randomly allocated into 4 groups as follows: 1- control normal [Control] mice received vehicle (10% DMSO). 2- Irradiated mice (8 Gy) received vehicle [IRR]. […] 4- Irradiated mice treated with Compound 4d (50 mg/ kg body wt./ p.o) for 3 successive days, [IRR + cmp 4d]. After 3 days, all animals were anesthetized with ketamine (80 mg/ kg), blood samples were collected via retro-orbital plexus, and then serum samples were separated after centrifugation. Heart and liver samples were dissected and rapidly washed with cool saline then heart samples were stored at -80 °C till assay time. One lobe of liver was embedded in 10% formalin for immunohistochemistry assay.
Heart tissues of mice were weighted and minced then homogenized in cold fresh lysis buffer, the homogenate was centrifuged for 5 min at 4000 rpm, and then the supernatant was used for assay. Cardiac contents of CK, TNF-α and Caspase-9 were measured according to manufacturer instructions using CK ELISA kit [catalog no. EK730963, AFG Bioscience®, USA], TNF-α ELISA kit [catalog no. SEA626Ra, Cloud-Clone Corp®, USA] and Caspase-9 ELISA kit [catalog no. E-EL-R02054, Elabsciense®, USA], respectively.

For data set [2], the system named is serum lactate dehydrogenase (LDH). Briefly: Serum LDH in 8 Gy irradiated mice. It counts as in vivo. The following applies: 50 mg/kg p.o., 3 days. As for the experimental part: as §1, §2
Serum LDH was estimated kinetically using Spectrum® coloring assay Kit [Egyptian company for biotechnology, SAE®, Egypt]. It was carried according to manufacturer's instructions; the values were expressed as IU/ml.

A further data set relates to serum catalase. The data set can be described thus: Serum catalase activity in 8 Gy irradiated mice. In kind it is in vivo. Particulars: 50 mg/kg p.o., 3 days. As to the method:
as §1, §2
Serum catalase was assessed colorimetrically in all groups according to manufacturer instructions using coloring endpoint kit [Biodiagnostic co.®, Egypt].

For a further data set, the system named is mice. Particulars: male, Swiss albino, mouse, in vivo, po, 14 days. As to the method:
For the study of the compound 4d's oral toxicity, 30 male Swiss albino mice were used. They were randomly allocated into 5 groups; the first group of mice (n = 6) received a vehicle and was used as control, while the other four groups, each received a different acute dose of compound 4d dissolved in 0.05% Tween 80 (9005–65-6) (200, 500, 800, and 1000 mg/kg p.o.). Up to 14 days after treatment, clinical toxicity symptoms (death, more than 20% weight loss, diarrhea, lethargy, tremors, and convulsions) were noted.

For another data set, the system named is cardiac TNF-α. Briefly: Cardiac TNF-α ELISA in 8 Gy irradiated mice. Particulars: in comparison to control irradiated group, 50 mg/kg p.o., 3 days. It counts as in vivo. As for the experimental part:
as §1, §2
(§3) Heart tissues of mice were weighted and minced then homogenized in cold fresh lysis buffer, the homogenate was centrifuged for 5 min at 4000 rpm, and then the supernatant was used for assay. Cardiac contents of CK, TNF-α and Caspase-9 were measured according to manufacturer instructions using CK ELISA kit [catalog no. EK730963, AFG Bioscience®, USA], TNF-α ELISA kit [catalog no. […]

A further data set concerns HepG2 cells. Briefly: HepG2 cell viability, SRB assay. It counts as cell-based. The following applies: Homo sapiens. As to the method:
(§4) Hepatocellular carcinoma (HepG2) and rat heart/myocardium (H9C2) were obtained from Nawah Scientific Inc., (Mokattam, Cairo, Egypt). Cells were maintained in DMEM media supplemented with […] of streptomycin (3810–74-0), 100 units/mL of penicillin (113–98-4) and 10% of heat-inactivated fetal bovine serum in humidified, 5% (v/v) CO2 atmosphere at 37 °C.
(§5) Cell viability was assessed by SRB assay,[67]. Aliquots of 100 μL cell suspension (5 × 10^3 cells) were in 96-well plates and incubated in complete media for 24 h. […] After 72 h of drug exposure, cells were fixed by replacing media with 150 μL of 10% TCA (76–03-9) and incubated at 4 °C for 1 h. The TCA solution was removed, and the cells were washed 5 times with distilled water. Aliquots of 70 μL SRB (3520–42-1) solution (0.4% w/v) were added and incubated in a dark place at room temperature for 10 min. Plates were washed 3 times with 1% acetic acid (64–19-7) and allowed to air-dry overnight. Then, 150 μL of TRIS (77–86-1) (10 mM) was added to dissolve protein-bound SRB stain; the absorbance was measured at 540 nm using a BMG LABTECH®- FLUOstar Omegammicroplate reader (Ortenberg, Germany).

The subject of a further data set is cardiac caspase-9. The data set can be described thus: Cardiac caspase-9 ELISA in 8 Gy irradiated mice. In kind it is in vivo. The following applies: 50 mg/kg p.o., 3 days. As to the method:
as §1, §2, §3

A further data set deals with hepatic VEGF. Briefly: Immunohistochemistry expression of VEGF in liver tissue of irradiated mice. It counts as in vivo. The following applies: 50 mg/kg p.o., 3 days, 8 Gy irradiated mice, vs irradiated animals. As for the experimental part: as §1, §2
Immunohistochemical study was carried out on paraffin tissue sections prepared for the detection VEGF, liver tissue sections were incubated separately with anti- VEGF (Gene Tex, USA). The expression of each marker was visualized by the chromogen 3,3-diaminobenzidine tetrahydrochloridem (DAB, Sigma Chemical Co.).

Another data set relates to H9C2 cells. Briefly: H9C2 cardiomyocyte viability, SRB assay. In kind it is cell-based, rat. Particulars: for IC50: 72 h, SRB. As to the method:
as §4, §5

Where [3] appears, read: 72 h, SRB, read-out: HepG2 IC50.

Eleven compounds from publication PMC10457369, “Novel VEGFR2 inhibitors with thiazoloquinoxaline scaffold targeting hepatocellular carcinoma with lower cardiotoxic impact” (Scientific Reports, 2023) can be followed below.

Like-named read-outs stand apart in the source and are kept apart here.

T1 sequence (P35968 20-1356): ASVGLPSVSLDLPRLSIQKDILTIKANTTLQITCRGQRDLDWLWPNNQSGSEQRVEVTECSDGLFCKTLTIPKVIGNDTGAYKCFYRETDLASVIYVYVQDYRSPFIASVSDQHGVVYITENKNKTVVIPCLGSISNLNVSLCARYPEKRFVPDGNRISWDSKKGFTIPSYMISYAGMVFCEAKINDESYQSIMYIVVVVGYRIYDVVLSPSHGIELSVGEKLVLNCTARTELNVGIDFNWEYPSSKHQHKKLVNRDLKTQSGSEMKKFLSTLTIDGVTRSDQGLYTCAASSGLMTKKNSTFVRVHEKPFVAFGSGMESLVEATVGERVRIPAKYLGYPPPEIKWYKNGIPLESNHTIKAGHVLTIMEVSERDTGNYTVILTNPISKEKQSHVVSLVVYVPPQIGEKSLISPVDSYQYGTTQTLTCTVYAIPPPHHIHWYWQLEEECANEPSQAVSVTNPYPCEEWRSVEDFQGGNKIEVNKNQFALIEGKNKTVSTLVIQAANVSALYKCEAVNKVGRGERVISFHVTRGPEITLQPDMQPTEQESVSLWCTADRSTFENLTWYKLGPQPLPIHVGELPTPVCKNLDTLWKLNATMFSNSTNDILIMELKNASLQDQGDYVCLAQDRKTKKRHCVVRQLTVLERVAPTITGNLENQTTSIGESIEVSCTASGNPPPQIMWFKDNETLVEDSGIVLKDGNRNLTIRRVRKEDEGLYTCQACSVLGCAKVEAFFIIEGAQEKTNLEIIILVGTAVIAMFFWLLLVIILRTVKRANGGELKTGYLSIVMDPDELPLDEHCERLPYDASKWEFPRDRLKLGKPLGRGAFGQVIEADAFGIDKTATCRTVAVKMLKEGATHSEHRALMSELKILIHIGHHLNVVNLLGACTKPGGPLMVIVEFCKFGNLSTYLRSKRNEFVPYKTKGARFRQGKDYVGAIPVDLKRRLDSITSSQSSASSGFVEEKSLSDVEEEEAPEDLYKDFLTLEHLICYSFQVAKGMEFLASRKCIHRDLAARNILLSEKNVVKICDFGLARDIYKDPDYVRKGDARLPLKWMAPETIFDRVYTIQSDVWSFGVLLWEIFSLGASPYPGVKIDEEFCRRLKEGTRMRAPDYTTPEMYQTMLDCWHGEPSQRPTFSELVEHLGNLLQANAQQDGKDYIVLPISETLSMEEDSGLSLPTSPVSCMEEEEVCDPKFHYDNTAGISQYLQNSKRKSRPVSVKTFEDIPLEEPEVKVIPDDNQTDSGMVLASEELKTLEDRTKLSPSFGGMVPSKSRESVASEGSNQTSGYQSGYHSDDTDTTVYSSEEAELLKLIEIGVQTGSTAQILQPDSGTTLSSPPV

`NS(=O)(=O)c1ccc(N=c2[nH]c3nc4ccccc4nc3s2)cc1` [Compound 4a, 4-(Thiazolo[4,5-b]quinoxalin-2(3H)-ylideneamino)benzenesulfonamide] had a melting point of 165 to 167 °C. This compound also displayed an IC50 at VEGFR-2 of 0.169 ± 0.0074 µM.

The compound `CC(=O)NS(=O)(=O)c1ccc(N=c2[nH]c3nc4ccccc4nc3s2)cc1` [Compound 4b, N-((4-(Thiazolo[4,5-b]quinoxalin-2(3H)ylideneamino)phenyl)sulfonyl)-acetamide] gave a melting point of 245 to 247 °C. Besides, the IC50 on VEGFR-2 was determined as 0.132 ± 0.0057 µM.

Consider `N=C(N)NS(=O)(=O)c1ccc(N=c2[nH]c3nc4ccccc4nc3s2)cc1` [Compound 4c, N-Carbamimidoyl-4-(thiazolo[4,5-b]quinoxalin-2(3H)-ylideneamino) benzene-esulfonamide], for which the melting point was more than 260 °C. The compound further showed an IC50 on VEGFR-2 of 0.254 ± 0.011 µM.

`O=S(=O)(Nc1ccccn1)c1ccc(N=c2[nH]c3nc4ccccc4nc3s2)cc1` [Compound 4d, N-(pyridin-2-yl)-4-(thiazolo[4,5-b]quinoxalin-2(3H)-ylideneamino) benzene-sulfonamide]: in data set [1], the “CK activity compared to normal values” is “not significantly different from normal values” and the “CK level compared to IRR non-treated group” value was “did not significantly lower CK level”. This compound also registered an IC50 against VEGFR-2 of 0.061 ± 0.0026 µM. Moreover, the “serum LDH compared to normal values” in data set [2] is listed as “non-significant deviation from normal LDH values”. The “decrease in serum LDH” value in data set [2] (compared to sorafenib treated group) stood at 40.83%. The serum catalase activity entry in the data set with serum catalase was “normal catalase activity”. In addition, the “high level of safety up to” value in the data set on mice is “up to 1000 mg/kg”. Further, in the data set with cardiac TNF-α, the “reduction in cardiac TNF-α” value came out at 35.75%. Also, in the data set on HepG2 cells (72 h, SRB), the viability at 0.01 µM turned out to be 98.55 ± 0.47%, the viability at 0.1 µM was 98.32 ± 0.97%, the viability at 1 µM worked out at 98.1 ± 1.8% and the viability at 10 µM was 6.62 ± 0.5%. For the same compound, in the data set with HepG2 cells (72 h, SRB), the viability at 100 µM came out at 3.81 ± 0.24%. Moreover, in the data set on HepG2 cells (setting [3]), the IC50 was determined as 4.31 µM. Moreover, the IC50 in the data set with HepG2 cells (read-out: suppressing potency on HepG2 cells proliferation) worked out at 4.31 µM. In addition, the “decrease in Caspase-9” value with cardiac caspase-9 (compared to control irradiated animals) is reported as 20.63%. Further, the “expression of VEGF in liver tissue” value in the data set on hepatic VEGF is listed as “promisingly suppressed”. Moreover, in the data set on H9C2 cells (H9C2 cardiomyocytes), the “times less cytotoxic than sorafenib” value was 2.93 times.

For `O=S(=O)(Nc1ncccn1)c1ccc(N=c2[nH]c3nc4ccccc4nc3s2)cc1` [Compound 4e, N-(Pyrimidin-2-yl)-4-(thiazolo[4,5-b]quinoxalin-2(3H)-ylideneamino) benzene-sulfonamide], the melting point is 223 to 225 °C. This compound also came in with an IC50 on VEGFR-2 of 0.112 ± 0.0048 µM.

As for `Cc1cc(NS(=O)(=O)c2ccc(N=c3[nH]c4nc5ccccc5nc4s3)cc2)no1` [Compound 4f, N-(5-Methylisoxazol-3-yl)-4-(thiazolo[4,5-b]quinoxalin-2(3H)-ylideneamino) benzene-sulfonamide], the melting point lay within 186 to 188 °C. For the same compound, on VEGFR-2, the IC50 came to 0.0833 ± 0.0037 µM. In the data set on HepG2 cells (72 h, SRB), this compound returned a viability at 0.01 µM of 97.6 ± 1.26%, a viability at 0.1 µM of 97.1 ± 1.06%, a viability at 1 µM of 96.6 ± 1.2% and a viability at 10 µM of 95.5 ± 3%. The compound further had a viability at 100 µM in the data set with HepG2 cells (72 h, SRB) of 94 ± 2.03%. Also, in the data set with HepG2 cells (setting [3]), the IC50 was more than 100 µM.

Regarding `O=S(=O)(Nc1nccs1)c1ccc(N=c2[nH]c3nc4ccccc4nc3s2)cc1` [Compound 4g, N-(Thiazol-2-yl)-4-(thiazolo[4,5-b]quinoxalin-2(3H)-ylideneamino) benzene-sulfonamide], the melting point lay within 238 to 240 °C. For the same compound, at VEGFR-2, the IC50 amounted to 0.0998 ± 0.0043 µM.

In turn, `Cc1ccnc(NS(=O)(=O)c2ccc(N=c3[nH]c4nc5ccccc5nc4s3)cc2)n1` [Compound 4h, N-(4-Methylpyrimidin-2-yl)-4-(thiazolo[4,5-b]quinoxalin-2(3H)-ylideneamino)-benzenesulfonamide] came in with a melting point of 199 to 201 °C. The compound further came in with an IC50 on VEGFR-2 of 0.217 ± 0.0094 µM.

Consider `Cc1cc(C)nc(NS(=O)(=O)c2ccc(N=c3[nH]c4nc5ccccc5nc4s3)cc2)n1` [Compound 4i, N-(4,6-Dimethylpyrimidin-2-yl)-4-(thiazolo[4,5-b]quinoxalin-2(3H)-ylideneamino) benzenesulfonamide], for which the melting point fell in the range of 246 to 248 °C. This compound also showed an IC50 on VEGFR-2 of 0.288 ± 0.013 µM.

The compound `COc1cc(NS(=O)(=O)c2ccc(N=c3[nH]c4nc5ccccc5nc4s3)cc2)nc(OC)n1` [Compound 4j, N-(2,6-Dimethoxypyrimidin-4-yl)-4-(thiazolo[4,5-b]quinoxalin-2(3H)-ylidene-amino)-benzenesulfonamide] registered a melting point of 249 to 251 °C. Moreover, the IC50 on VEGFR-2 amounted to 0.368 ± 0.016 µM.

As for `CNC(=O)c1cc(Oc2ccc(NC(=O)Nc3ccc(Cl)c(C(F)(F)F)c3)cc2)ccn1` [Sorafenib, reference compound], in data set [1] (vs normal), the “increment in CK enzymatic activity” value is given as 35.88%. For the same compound, the “increase in serum LDH” value in data set [2] (vs normal) is listed as 106.06%. Further, in the data set on serum catalase (vs normal), the “decrease in serum catalase activity” value worked out at 6.19%. Further, in the data set with cardiac TNF-α, the “reduction in cardiac TNF-α” value stood at 31.87%. In the data set with HepG2 cells (72 h, SRB), this compound yielded a viability at 0.01 µM of 99.58 ± 0.94%, a viability at 0.1 µM of 98.2 ± 3.19%, a viability at 1 µM of 87.1 ± 2.02% and a viability at 10 µM of 11.3 ± 0.31%. The compound also displayed a viability at 100 µM in the data set with HepG2 cells (72 h, SRB) of 4.05 ± 0.1%. The IC50 in the data set on HepG2 cells (setting [3]) worked out at 2.97 µM. Further, the “increase in cardiac caspase-9 levels” value in the data set with cardiac caspase-9 (over normal values) was found to be 29.83%. Also, in the data set on hepatic VEGF, the “expression of VEGF in liver tissue” value was “promisingly suppressed”. In the data set on H9C2 cells, this compound yielded an IC50 of 33.5 µM. Moreover, the IC50 in the data set on H9C2 cells (listed as sorafenib) was 98.1 µM.
